# Values of other authors in patent US8496960B2 (Purdue Pharma L.P., priority 2001, dated 2013).
# Assays:
# [1] = following oral administration
compound,measurement,setting,value
COc1cc2nc(N3CCN(C(=O)C4CCCO4)CC3)nc(N)c2cc1OC (stereo not drawn) [terazosin],first-pass effect,following oral administration,minimal
same,effect of food on bioavailability,"oral, with food",no significant effect
same,time to antihypertensive effects,[1],≤ 15 min
